Measured values: patent US20050221328A1, “Inhibitors of inflammatory gene activity and cholesterol biosynthesis” (Wyeth, priority 2002, published 2005)

How the values were obtained:
[1] = tested on: mouse liver; experiment: EE induction of gene expression in the mouse liver (GeneChip); type: in vivo; details: 100 ug/kg/day EE sc 5 days;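 also: ovariectomized C57BL/6 mice, liver polyA RNA on Affymetrix murine 11K GeneChips, fold expression versus vehicle-pretreated PBS-injected mice set to 1.0, mean of two independent experiments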
Method: Ovariectomized C57BL/6 mice were pretreated by subcutaneous administration of either corn oil/ethanol vehicle or 100 ug/kg/day ethynylestradiol (EE) for 5 days. […] One hour later the livers were removed and polyA RNA was prepared. Global gene expression was determined by analysis using murine 11K GeneChips from Affymetrix. For each gene, the level of expression in animals receiving vehicle pretreatment plus PBS was defined as 1.0, with the expression levels in the mice receiving vehicle pretreatment±IL-1β or EE pretreatment±IL-1β defined relative to this. The results shown are the mean from two independent experiments.
To determine whether EE induction of any other gene could explain the inhibition of IL-1β gene inductions, the GeneChip results were analyzed for EE induction of gene expression.

[2] = tested on: mouse liver; details: GeneChip, 1 h after 20 ug/kg IL-1β ip, pretreated 5 days with vehicle or 100 ug/kg/day EE sc, vehicle+PBS=1.0;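 also: ovariectomized C57BL/6 mice, liver polyA RNA profiled, values are fold expression relative to vehicle plus PBS, averaged over two independent experiments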
Method: Experiments were conducted to evaluate IL-1β regulation of gene expression in the mouse liver. Ovariectomized C57BL/6 mice were pretreated by subcutaneous administration of either corn oil/ethanol vehicle or 100 ug/kg/day ethynylestradiol (EE) for 5 days. On the fifth day, the mice received an intraperitoneal injection of either PBS or 20 ug/kg IL-1β in PBS. One hour later the livers were removed and polyA RNA was prepared. Global gene expression was determined by analysis using murine 11K GeneChips from Affymetrix. For each gene, the level of expression in animals receiving vehicle pretreatment plus PBS was defined as 1.0, with the expression levels in the mice receiving vehicle pretreatment±IL-1β or EE pretreatment±IL-1β defined relative to this. The results shown are the mean from two independent experiments.
The fold regulation of each gene is plotted for animals receiving vehicle pretreatment x-axis) vs. animals receiving pretreatment with EE (y-axis). Genes with IL-1β induction unaffected by EE pretreatment would lie along the dotted diagonal.

[3] = tested on: Fnk, JAB, LIX, bcl-3 and SHP; experiment: Liver expression of Fnk, JAB, LIX, bcl-3 and SHP by realtime PCR after estrogen receptor ligand pretreatment and IL-1β
Method: Referring to FIG. 3a, to distinguish these two mechanisms, the IL-1β fold induction of Fnk, JAB, LIX, and bcl-3 and the IL-1β fold repression of SHP was quantified in animals pretreated with vehicle (black bars) or 100 ug/kg/day EE (grey bars). Liver RNA levels of each gene (mean +/−SEM) were determined by realtime PCR of RNA from each individual animal.
Referring to FIGS. 4a, 4b, 4c, 4d and 4e, experiments were conducted to determine whether EE blocks IL-1β induction of gene expression by an estrogen receptor (ER) dependent mechanism. Estrogens can regulate gene expression by many mechanisms including ER independent pathways such as antioxidant mechanisms. […] Liver expression levels of Fnk, JAB, LIX, bcl-3 and SHP (mean +/−SEM) were determined by realtime PCR.
Referring to FIGS. 5a, 5b, 5c, 5d, and 5e, experiments were conducted to determine whether ERα is required for EE regulation of gene expression in the liver. To determine whether ERα or ERβ mediated the EE effects on IL-1β gene expression in the liver, C57BL/6 wild type mice, C57BL/6 ERαKO mice, or 129 ERβKO mice were pretreated with vehicle (black bars) or […] EE (gray bars) for 5 days followed by a 1 hour treatment with IL-1β. Liver expression levels of Fnk, JAB, LIX, bcl-3, and SHP (mean +/−SEM) were quantified by realtime PCR, with expression in animals receiving vehicle+PBS defined as 1.0.

[4] = tested on: Fnk, JAB, LIX, and bcl-3; experiment: EE alteration of IL-1β induction of Fnk, JAB, LIX and bcl-3 in liver, spleen and lung; type: in vivo, mouse; details: EE pretreatment
Description: The requirement for ERα for EE activity in the liver is consistent with the nearly exclusive presence of ERα in the liver (as determined by realtime PCR, panel A). In contrast, the lung expresses relatively low levels of ERα and high levels of ERB. […] In contrast, EE pretreatment had no effect on IL-1β induction of Fnk, JAB, LIX, or bcl-3 in the lung.

[5] = mouse liver, EE treated mice vs vehicle treated mice

C#C[C@]1(O)CC[C@H]2[C@@H]3CCc4cc(O)ccc4[C@H]3CC[C@@]21C [EE, ethynylestradiol]
EE Induction C1Qc (C1qc) [1]: 2.3
EE Induction C1qB (C1qb) [1]: 2.8
EE Induction CD53 (Cd53) [1]: 2.9
EE Induction CD68 antigen (Cd68) [1]: 3.1
EE Induction CD97 (Cd97) [1]: 6.0
EE Induction Cytochrome P450, 17 (Cyp17) [1]: 32.3
EE Induction F4/80 (Emr1) [1]: 3.1
EE Induction H2A histone family, member X (H2afx) [1]: 5.1
EE Induction Keratin complex 2, basic, gene 4 (Krt2-4) [1]: 38.0
EE Induction apolipoprotein A-IV (Apoa4) [1]: 3.5
EE Induction apolipoprotein C2 (Apoc2) [1]: 2.2
EE Induction apoptosis inhibitory 6 (Api6) [1]: 3.3
EE Induction cadherin 1 (Cdh1) [1]: 2.6
EE Induction cathepsin S (Ctss) [1]: 4.0
EE Induction cell division cycle 2 homolog A (Cdc2a) [1]: 4.6
EE Induction colony stimulating factor 1 receptor (Csf1r) [1]: 2.8
EE Induction creatine kinase B (Ckb) [1]: 13.0
EE Induction cytochrome P450, 7b1 (Cyp7b1) [1]: 21.1
EE Induction desmocollin 2 (Dsc2) [1]: 5.0
EE Induction fatty acid binding protein 7, brain (Fabp7) [1]: 4.8
EE Induction interferon activated gene 203 (lfi203) [1]: 2.5
EE Induction interleukin 17 receptor (Il17r) [1]: 3.5
EE Induction leukemia inhibitory factor receptor (Lifr) [1]: 5.1
EE Induction lymphocyte antigen 86 (Ly86) [1]: 4.3
EE Induction lysosomal thiol reductase IP30 precursor (IP30) [1]: 3.7
EE Induction mannose receptor, C type 1 (Mrc1) [1]: 2.6
EE Induction myo-inositol-1-phosphate synthase (aa221219) [1]: 167.1
EE Induction properdin (Pfc) [1]: 2.9
EE Induction prostaglandin D2 synthase (Ptgds) [1]: 72.8
EE Induction proteinase 3 (Prtn3) [1]: 24.1
EE Induction pyrroline-5-carboxylate synthetase (Pycs) [1]: 3.3
EE Induction serum/glucocorticoid regulated kinase (Sgk) [1]: 4.5
EE Induction signal transducer and activator of transcription 5A (Stat5a) [1]: 4.1
EE Induction solute carrier family 11, member 1 (Slc11a1) [1]: 3.6
EE Induction stathmin (Kist) [1]: 3.5
EE Induction testosterone 16-alpha-hydroxylase (C-16-alpha) (Cyp2d9) [1]: 2.3
EE Induction trefoil factor 3, intestinal (Tff3) [1]: 16.3
EE Induction type llb Na/phosphate-cotransporter (Npt2b) [1]: 13.5
IL-1 Induction A20 (Tnfaip3) [2]: 11.4 fold
IL-1 Induction B94, TNF-α induced protein 2 (Tnfaip2) [2]: 17.7 fold
IL-1 Induction C/EBPδ (Cebpd) [2]: 5.2 fold
IL-1 Induction CD14 (Cd14) [2]: 6.1 fold
IL-1 Induction CD83 (Cd83) [2]: 4.0 fold
IL-1 Induction E-selectin (Sele) [2]: 5.2 fold
IL-1 Induction Ets transcription factor ELF3 (Elf3) [2]: 6.7 fold
IL-1 Induction G0/G1 switch gene 2 (G0s2) [2]: 0.05 fold
IL-1 Induction GTP binding protein IRG-47 (lfi47) [2]: 3.2 fold
IL-1 Induction Gadd45 (Gadd45a) [2]: 3.6 fold
IL-1 Induction Glvr-1 (Slc20a1) [2]: 5.8 fold
IL-1 Induction H-2Ld (H-2L) [2]: 4.1 fold
IL-1 Induction ICAM-1 (lcam1) [2]: 38.4 fold
IL-1 Induction IL-1m (Il1m) [2]: 18.9 fold
IL-1 Induction IL-15 receptor (Il15ra) [2]: 2.7 fold
IL-1 Induction IxBa (Nfkbia) [2]: 7.4 fold
IL-1 Induction JAB, suppressor of cytokine signaling 1 (Cish1) [2]: 1.4 fold
IL-1 Induction JE/MCP-1 (Scya2) [2]: 64.4 fold
IL-1 Induction LIX (Scyb5) [2]: 2.9 fold
IL-1 Induction LPS inducible C—C chemokine receptor related (AF030185) [2]: 5.6 fold
IL-1 Induction M-CSF (Csf1) [2]: 23.9 fold
IL-1 Induction MARCKS-like macrophage protein (Mlp) [2]: 5.1 fold
IL-1 Induction MIG (Scyb9) [2]: 5.4 fold
IL-1 Induction MIP2 (Scyb2) [2]: 91.1 fold
IL-1 Induction MIP-1 gamma (Scya9) [2]: 1.9 fold
IL-1 Induction MyD118 (GADD45b) [2]: 12.9 fold
IL-1 Induction NF-E2 related factor 2 (NRF2) (Nfe212) [2]: 7.2 fold
IL-1 Induction NF-kappa-B p105 (Nfkb1) [2]: 6.2 fold
IL-1 Induction NFkB p100 (Nfkb2) [2]: 2.8 fold
IL-1 Induction PAI-1 (Serpine1) [2]: 40.8 fold
IL-1 Induction PDGF-induced KC (Gro1) [2]: 6.1 fold
IL-1 Induction PIM-1 protein kinase (Pim1) [2]: 2.1 fold
IL-1 Induction SHP (NrGb2) [2]: 0.53 fold
IL-1 Induction T-cell death associated gene (Tdag) [2]: 2.2 fold
IL-1 Induction T-cell specific GTPase (Tgtp) [2]: 2.8 fold
IL-1 Induction TGFB inducible early growth response (Tieg) [2]: 0.38 fold
IL-1 Induction Ubiquitin-conjugating E2 enzyme variant 2 (Ube2v2) [2]: 5.3 fold
IL-1 Induction VCAM-1 (Vcam1) [2]: 12.5 fold
IL-1 Induction adrenergic receptor, beta 2 (Adrb2) [2]: 3.1 fold
IL-1 Induction adrenomedullin (Adm) [2]: 10.0 fold
IL-1 Induction apoptosis inhibitor 1 (Birc2) [2]: 8.9 fold
IL-1 Induction apoptosis inhibitor 2 (Birc3) [2]: 4.3 fold
IL-1 Induction bcl-3 (Bcl3) [2]: 6.2 fold
IL-1 Induction c-JUN (Jun) [2]: 5.6 fold
IL-1 Induction calcium binding protein A6 (S100a6) [2]: 2.6 fold
IL-1 Induction calgranulin A (S100A8) [2]: 10.7 fold
IL-1 Induction calgranulin B (S100a9) [2]: 25.7 fold
IL-1 Induction cytokine-inducible kinase Fnk (Cnk) [2]: 0.3 fold
IL-1 Induction gly96 (ler3) [2]: 43.8 fold
IL-1 Induction growth factor receptor bound protein 7 (Grb7) [2]: 0.13 fold
IL-1 Induction guanylate nucleotide binding protein 2 (Gbp2) [2]: 3.6 fold
IL-1 Induction helix-loop-helix factor HES-1 (Hes1) [2]: 0.25 fold
IL-1 Induction heme oxygenase 1 (Hmox1) [2]: 3.0 fold
IL-1 Induction hsp68 (Hsp70-3) [2]: 1.5 fold
IL-1 Induction inducible 6-phosphofructo-2-kinase (AA163244) [2]: 3.0 fold
IL-1 Induction inhibitor of DNA binding 3 (idb3) [2]: 3.1 fold
IL-1 Induction insulin-like growth factor binding protein 1 (lgfbp1) [2]: 4.3 fold
IL-1 Induction intercrine (Scya7) [2]: 11.4 fold
IL-1 Induction interferon regulatory factor 1 (Irf1) [2]: 9.0 fold
IL-1 Induction junB (Junb) [2]: 2.6 fold
IL-1 Induction lipocalin 2 (Lcn2) [2]: 2.9 fold
IL-1 Induction lkB-beta (Nfkbib) [2]: 2.8 fold
IL-1 Induction m-myc (Myc) [2]: 3.4 fold
IL-1 Induction macrophage interferon inducible protein 10 (Scyb10) [2]: 39.3 fold
IL-1 Induction metalloproteinase-disintegrin (Adamts1) [2]: 4.6 fold
IL-1 Induction molecule possessing ankyrin-repeats induced by LPS (aa614971) [2]: 22.7 fold
IL-1 Induction myocyte-enriched calcineurin interactin protein (Dscrl) [2]: 9.3 fold
IL-1 Induction noctumin (Ccr4) [2]: 9.0 fold
IL-1 Induction p65 NF-kappa B (Rela) [2]: 2.4 fold
IL-1 Induction phospholipid scramblase 1 (Plscr1) [2]: 5.6 fold
IL-1 Induction protein tyrosine phosphatase 4a1 (Ptp4a1) [2]: 1.2 fold
IL-1 Induction regulator for ribosome resistance homolog (Rrr) [2]: 3.3 fold
IL-1 Induction relB (Relb) [2]: 7.9 fold
IL-1 Induction rhoB (Arhb) [2]: 18.5 fold
IL-1 Induction serum amyloid A 3 (Saa3) [2]: 36.0 fold
IL-1 Induction serum amyloid A 4 (Saa4) [2]: 1.9 fold
IL-1 Induction suppressor of cytokine signaling 2 (Cish2) [2]: 1.7 fold
IL-1 Induction suppressor of cytokine signaling 3 (Cish3) [2]: 6.0 fold
IL-1 Induction transglutaminase (Tgm2) [2]: 8.0 fold
EE inhibition of IL-1β regulation of Fnk, JAB, LIX, bcl-3, SHP in animals lacking ERβ vs wild type ([3]; 129 ERβKO mice vs C57BL/6 wild type, 10 ug/kg/day EE 5 days, IL-1β 1 hour): comparable
effect on IL-1β regulation of Fnk, JAB, LIX, bcl-3, SHP in animals lacking ERα ([3]; C57BL/6 ERαKO mice, 10 ug/kg/day EE 5 days, IL-1β 1 hour): no effect
effect on regulation of liver Fnk, JAB, LIX, bcl-3 and SHP expression vs IL-1β alone ([3]; mice, 100 ug/kg/day EE, 1 or 10 mg/kg/day E2, 30 mg/kg/day genistein, 5 mg/kg/day raloxifene, 10 mg/kg/day ICI182780, plus IL-1β): greatest effect
IL-1 repression of SHP expression ([3]; mouse liver, realtime PCR, vehicle treated or 100 ug/kg/day EE treated animals): 85%
IL-1 induction of bcl-3 ([3]; mouse liver, realtime PCR, vehicle treated or 100 ug/kg/day EE treated mice, IL-1 vs PBS): 5.2 fold
IL-1β fold induction of Fnk, JAB, and LIX ([3]; mouse liver, 100 ug/kg/day EE pretreated vs vehicle): reduced
IL-1β fold regulation for bcl-3 and SHP ([3]; mouse liver, 100 ug/kg/day EE treated vs vehicle): the same
inhibition of IL-1β induction of Fnk, JAB, LIX and bcl-3 ([3]; mouse liver, 100 ug/kg/day EE, 30 mg/kg/day genistein, 5 mg/kg/day raloxifene): inhibited
basal expression of SHP [3, 5]: increased
basal expression of bcl-3 [3, 5]: repressed
IL-1β induction of Fnk, JAB, LIX, and bcl-3 in the liver ([4]; liver): significantly blocked
IL-1β induction of Fnk, JAB, LIX, or bcl-3 in the lung ([4]; lung): no effect
IL-1β induction of Fnk and JAB in the spleen ([4]; spleen): blocked
